Source: ChEMBL document CHEMBL1201862, “PubChem BioAssay data set” (2004)
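Dose response: 5 concentrations. Exposure: 48 h. Format: 96-well plates. Endpoint: linear interpolation; highest concentration if not reached. Here, GI50 denotes the concentration required for 50% inhibition of growth.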 The source made the active and inactive calls. No stated cut-off is given here; in the data, active = GI50 up to about 1.1 µM and inactive = higher.

Assays:
Experiment in all cases: DTP human tumour cell line panel, 48 h
NCI-H23 = system: NCI-H23
HOP-18 = system: HOP-18
SF-295 = system: SF-295
NCI-H226 = system: NCI-H226
EKVX = system: EKVX
SR = system: SR
HOP-62 = system: HOP-62
HT-29 = system: HT-29
KM-20L2 = system: KM-20L2
RPMI-8226 = system: RPMI-8226
OVCAR-5 = system: OVCAR-5
HL-60 = system: HL-60
COLO 205 = system: COLO 205
IGROV-1 = system: IGROV-1
SNB-78 = system: SNB-78
LOX IMVI = system: LOX IMVI
UO-31 = system: UO-31
NCI-H460 = system: NCI-H460
SK-OV-3 = system: SK-OV-3
MOLT-4 = system: MOLT-4
TK-10 = system: TK-10
A549 = system: A549
XF498 = system: XF498
LXFL 529 = system: LXFL 529
SNB-19 = system: SNB-19
OVCAR-8 = system: OVCAR-8
786-0 = system: 786-0
SK-MEL-5 = system: SK-MEL-5
CAKI-1 = system: CAKI-1
SK-MEL-28 = system: SK-MEL-28
DMS-114 = system: DMS-114
A498 = system: A498
SW-620 = system: SW-620
HCC 2998 = system: HCC 2998
DMS-273 = system: DMS-273
SF-539 = system: SF-539
KM12 = system: KM12
SK-MEL-2 = system: SK-MEL-2
M14 = system: M14
SN12C = system: SN12C
M19-MEL = system: M19-MEL
U-251 = system: U-251
HCT-15 = system: HCT-15
HCT-116 = system: HCT-116
OVCAR-3 = system: OVCAR-3
ACHN = system: ACHN
SNB-75 = system: SNB-75
NCI-H522 = system: NCI-H522
OVCAR-4 = system: OVCAR-4
DLD-1 = system: DLD-1
UACC-62 = system: UACC-62
UACC-257 = system: UACC-257
K562 = system: K562
SF-268 = system: SF-268

## O=S(=O)(c1ccccc1)c1nccs1
NCI-H23
  GI50: > 100 µM (inactive)
HOP-18
  GI50: > 100 µM (inactive)
SF-295
  GI50: > 100 µM (inactive)
NCI-H226
  GI50: > 100 µM (inactive)
EKVX
  GI50: > 100 µM (inactive)
SR
  GI50: > 100 µM (inactive)
HOP-62
  GI50: > 100 µM (inactive)
HT-29
  GI50: > 100 µM (inactive)
KM-20L2
  GI50: > 100 µM (inactive)
RPMI-8226
  GI50: > 100 µM (inactive)
OVCAR-5
  GI50: > 100 µM (inactive)
HL-60
  GI50: > 100 µM (inactive)
COLO 205
  GI50: > 100 µM (inactive)
IGROV-1
  GI50: > 100 µM (inactive)
SNB-78
  GI50: > 100 µM (inactive)
LOX IMVI
  GI50: > 100 µM (inactive)
UO-31
  GI50: > 100 µM (inactive)
NCI-H460
  GI50: > 100 µM (inactive)
SK-OV-3
  GI50: > 100 µM (inactive)
MOLT-4
  GI50: > 100 µM (inactive)
TK-10
  GI50: > 100 µM (inactive)
A549
  GI50: > 100 µM (inactive)
XF498
  GI50: > 100 µM (inactive)
LXFL 529
  GI50: > 100 µM (inactive)
SNB-19
  GI50: > 100 µM (inactive)
OVCAR-8
  GI50: > 100 µM (inactive)
786-0
  GI50: > 100 µM (inactive)
SK-MEL-5
  GI50: > 100 µM (inactive)
CAKI-1
  GI50: > 100 µM (inactive)
SK-MEL-28
  GI50: > 100 µM (inactive)
DMS-114
  GI50: > 100 µM (inactive)
A498
  GI50: > 100 µM (inactive)
SW-620
  GI50: > 100 µM (inactive)
HCC 2998
  GI50: > 100 µM (inactive)
DMS-273
  GI50: > 100 µM (inactive)
SF-539
  GI50: > 100 µM (inactive)
KM12
  GI50: > 100 µM (inactive)
SK-MEL-2
  GI50: > 100 µM (inactive)
M14
  GI50: > 100 µM (inactive)
SN12C
  GI50: > 100 µM (inactive)
M19-MEL
  GI50: > 100 µM (inactive)
U-251
  GI50: > 100 µM (inactive)
HCT-15
  GI50: > 100 µM
HCT-116
  GI50: > 100 µM (inactive)
OVCAR-3
  GI50: > 100 µM (inactive)
ACHN
  GI50: > 100 µM (inactive)
SNB-75
  GI50: > 100 µM (inactive)
NCI-H522
  GI50: > 100 µM (inactive)
OVCAR-4
  GI50: > 100 µM (inactive)
DLD-1
  GI50: > 100 µM (inactive)
UACC-62
  GI50: > 100 µM (inactive)
UACC-257
  GI50: > 100 µM (inactive)
K562
  GI50: > 100 µM (inactive)
SF-268
  GI50: > 100 µM (inactive)
